Test results taken from ChEMBL document CHEMBL3297661, “1-Substituted-5-[(3,5-dinitrobenzyl)sulfanyl]-1H-tetrazoles and their isosteric analogs: A new class of selective antitubercular agents active against drug-susceptible and multidrug-resistant mycobacteria” (Eur J Med Chem, 2014).
≈ marks a conversion by molar mass, not a printed value.

Key:
Type in all cases: functional
[1] = test system: Mycobacterium tuberculosis; assay: Antimycobacterial activity against multidrug-resistant Mycobacterium tuberculosis 9449/2007 after 7 days by micromethod
[2] = test system: Mycobacterium tuberculosis; assay: Antimycobacterial activity against multidrug-resistant Mycobacterium tuberculosis 8666/2010 after 7 days by micromethod
[3] = test system: Mycobacterium tuberculosis; assay: Antimycobacterial activity against multidrug-resistant Mycobacterium tuberculosis Praha 4 after 7 days by micromethod
[4] = test system: Mycobacterium tuberculosis; assay: Antimycobacterial activity against multidrug-resistant Mycobacterium tuberculosis Praha 1 after 14 days by micromethod; conditions: Praha 1, 336 h
[5] = test system: Mycobacterium tuberculosis; assay: Antimycobacterial activity against multidrug-resistant Mycobacterium tuberculosis 8666/2010 after 14 days by micromethod; conditions: 8666/2010, 336 h
[6] = test system: Mycobacterium tuberculosis; assay: Antimycobacterial activity against multidrug-resistant Mycobacterium tuberculosis 234/2005 after 14 days by micromethod; conditions: 234/2005, 336 h
[7] = test system: Mycobacterium tuberculosis; assay: Antimycobacterial activity against multidrug-resistant Mycobacterium tuberculosis Praha 1 after 7 days by micromethod
[8] = test system: Mycobacterium tuberculosis; assay: Antimycobacterial activity against multidrug-resistant Mycobacterium tuberculosis Praha 131 after 7 days by micromethod
[9] = test system: Mycobacterium tuberculosis; assay: Antimycobacterial activity against multidrug-resistant Mycobacterium tuberculosis 9449/2007 after 14 days by micromethod; conditions: 9449/2007, 336 h
[10] = test system: Mycobacterium tuberculosis; assay: Antimycobacterial activity against multidrug-resistant Mycobacterium tuberculosis Praha 4 after 14 days by micromethod; conditions: Praha 4, 336 h
[11] = test system: Mycobacterium tuberculosis; assay: Antimycobacterial activity against multidrug-resistant Mycobacterium tuberculosis Praha 131 after 14 days by micromethod; conditions: Praha 131, 336 h
[12] = test system: Mycobacterium tuberculosis; assay: Antimycobacterial activity against multidrug-resistant Mycobacterium tuberculosis 234/2005 after 7 days by micromethod

Compound `CCCCCCn1nnnc1[Se]Cc1cc([N+](=O)[O-])cc([N+](=O)[O-])c1` has an MIC ([1]; 9449/2007, 168 h) of 1 µM (≈ 0.413 µg/mL), an MIC ([2]; 8666/2010, 168 h) of 0.5 µM (≈ 0.207 µg/mL) and an MIC ([3]; Praha 4, 168 h) of 1 µM (≈ 0.413 µg/mL). It also gave an MIC [4] of 0.5 µM (≈ 0.207 µg/mL), an MIC [5] of 0.25 µM (≈ 0.103 µg/mL) and an MIC [6] of 0.5 µM (≈ 0.207 µg/mL). For the same compound, the MIC ([7]; Praha 1, 168 h) was 1 µM (≈ 0.413 µg/mL), the MIC ([8]; Praha 131, 168 h) was 1 µM (≈ 0.413 µg/mL) and the MIC [9] was 0.5 µM (≈ 0.207 µg/mL). For the same compound, the MIC [10] was 0.5 µM (≈ 0.207 µg/mL), the MIC [11] was 0.5 µM (≈ 0.207 µg/mL) and the MIC ([12]; 234/2005, 168 h) was 1 µM (≈ 0.413 µg/mL).

With `O=[N+]([O-])c1cc(C[Se]c2nnnn2C2CCCCC2)cc([N+](=O)[O-])c1` the MIC ([1]; 9449/2007, 168 h) was 1 µM (≈ 0.411 µg/mL), the MIC ([2]; 8666/2010, 168 h) was 0.5 µM (≈ 0.206 µg/mL) and the MIC ([3]; Praha 4, 168 h) was 1 µM (≈ 0.411 µg/mL). It also gave an MIC [4] of 0.5 µM (≈ 0.206 µg/mL), an MIC [5] of 0.5 µM (≈ 0.206 µg/mL) and an MIC [6] of 0.5 µM (≈ 0.206 µg/mL). The MIC ([7]; Praha 1, 168 h) was 1 µM (≈ 0.411 µg/mL), the MIC ([8]; Praha 131, 168 h) was 1 µM (≈ 0.411 µg/mL) and the MIC [9] was 0.5 µM (≈ 0.206 µg/mL). The MIC [10] was 0.5 µM (≈ 0.206 µg/mL), the MIC [11] was 0.5 µM (≈ 0.206 µg/mL) and the MIC ([12]; 234/2005, 168 h) was 1 µM (≈ 0.411 µg/mL).

With `O=[N+]([O-])c1cc(CSc2nnnn2C2CCCCC2)cc([N+](=O)[O-])c1` the MIC ([1]; 9449/2007, 168 h) was 1 µM (≈ 0.364 µg/mL), the MIC ([2]; 8666/2010, 168 h) was 0.5 µM (≈ 0.182 µg/mL) and the MIC ([3]; Praha 4, 168 h) was 1 µM (≈ 0.364 µg/mL). It also gave an MIC [4] of 1 µM (≈ 0.364 µg/mL), an MIC [5] of 0.5 µM (≈ 0.182 µg/mL) and an MIC [6] of 0.5 µM (≈ 0.182 µg/mL). The MIC ([7]; Praha 1, 168 h) was 1 µM (≈ 0.364 µg/mL), the MIC ([8]; Praha 131, 168 h) was 1 µM (≈ 0.364 µg/mL) and the MIC [9] was 1 µM (≈ 0.364 µg/mL). It also gave an MIC [10] of 0.5 µM (≈ 0.182 µg/mL), an MIC [11] of 1 µM (≈ 0.364 µg/mL) and an MIC ([12]; 234/2005, 168 h) of 1 µM (≈ 0.364 µg/mL).

For `COc1ccc(-n2nnnc2[Se]Cc2cc([N+](=O)[O-])cc([N+](=O)[O-])c2)cc1`, the MIC ([1]; 9449/2007, 168 h) was 1 µM (≈ 0.435 µg/mL), the MIC ([2]; 8666/2010, 168 h) was 0.5 µM (≈ 0.218 µg/mL) and the MIC ([3]; Praha 4, 168 h) was 1 µM (≈ 0.435 µg/mL). For the same compound, the MIC [4] was 0.5 µM (≈ 0.218 µg/mL), the MIC [5] was 0.5 µM (≈ 0.218 µg/mL) and the MIC [6] was 1 µM (≈ 0.435 µg/mL). For the same compound, the MIC ([7]; Praha 1, 168 h) was 1 µM (≈ 0.435 µg/mL), the MIC ([8]; Praha 131, 168 h) was 1 µM (≈ 0.435 µg/mL) and the MIC [9] was 1 µM (≈ 0.435 µg/mL). For the same compound, the MIC [10] was 0.5 µM (≈ 0.218 µg/mL), the MIC [11] was 1 µM (≈ 0.435 µg/mL) and the MIC ([12]; 234/2005, 168 h) was 1 µM (≈ 0.435 µg/mL).

For `NCC[C@H](O)C(=O)N[C@@H]1C[C@H](N)[C@@H](O[C@H]2O[C@H](CN)[C@@H](O)[C@H](O)[C@H]2O)[C@H](O)[C@H]1O[C@H]1O[C@H](CO)[C@@H](O)[C@H](N)[C@H]1O` [AMIKACIN], the MIC ([1]; 9449/2007, 168 h) was 32 µM (≈ 18.7 µg/mL), the MIC ([2]; 8666/2010, 168 h) was > 8 µM and the MIC ([3]; Praha 4, 168 h) was 0.5 µM (≈ 0.293 µg/mL). The MIC ([7]; Praha 1, 168 h) was 2 µM (≈ 1.17 µg/mL), the MIC ([8]; Praha 131, 168 h) was > 32 µM and the MIC ([12]; 234/2005, 168 h) was 32 µM (≈ 18.7 µg/mL).

`CC(C)/N=c1\cc2n(-c3ccc(Cl)cc3)c3ccccc3nc-2cc1Nc1ccc(Cl)cc1` [CLOFAZIMINE] was tested, and the MIC ([1]; 9449/2007, 168 h) was 8 µM (≈ 3.79 µg/mL), the MIC ([2]; 8666/2010, 168 h) was > 8 µM and the MIC ([3]; Praha 4, 168 h) was 0.125 µM (≈ 0.0592 µg/mL). For the same compound, the MIC ([7]; Praha 1, 168 h) was 0.25 µM (≈ 0.118 µg/mL), the MIC ([8]; Praha 131, 168 h) was 1 µM (≈ 0.473 µg/mL) and the MIC ([12]; 234/2005, 168 h) was 16 µM (≈ 7.57 µg/mL).

For `CC[C@@H](CO)NCCN[C@@H](CC)CO` [ETHAMBUTOL], the MIC ([1]; 9449/2007, 168 h) was 16 µM (≈ 3.27 µg/mL), the MIC ([2]; 8666/2010, 168 h) was > 8 µM and the MIC ([3]; Praha 4, 168 h) was 0.5 µM (≈ 0.102 µg/mL). For the same compound, the MIC ([7]; Praha 1, 168 h) was 2 µM (≈ 0.409 µg/mL), the MIC ([8]; Praha 131, 168 h) was 0.5 µM (≈ 0.102 µg/mL) and the MIC ([12]; 234/2005, 168 h) was > 32 µM.

`NNC(=O)c1ccncc1` [ISONIAZID] gave an MIC ([1]; 9449/2007, 168 h) of 16 µM (≈ 2.19 µg/mL), an MIC ([2]; 8666/2010, 168 h) of 32 µM (≈ 4.39 µg/mL) and an MIC ([3]; Praha 4, 168 h) of 1 µM (≈ 0.137 µg/mL). The MIC ([7]; Praha 1, 168 h) was 8 µM (≈ 1.1 µg/mL), the MIC ([8]; Praha 131, 168 h) was 0.25 µM (≈ 0.0343 µg/mL) and the MIC ([12]; 234/2005, 168 h) was > 32 µM.

`CC1COc2c(N3CCN(C)CC3)c(F)cc3c(=O)c(C(=O)O)cn1c23` (stereo unspecified) [OFLOXACIN] was tested, and the MIC ([1]; 9449/2007, 168 h) was 16 µM (≈ 5.78 µg/mL), the MIC ([2]; 8666/2010, 168 h) was > 8 µM and the MIC ([3]; Praha 4, 168 h) was 0.125 µM (≈ 0.0452 µg/mL). For the same compound, the MIC ([7]; Praha 1, 168 h) was > 16 µM, the MIC ([8]; Praha 131, 168 h) was 0.5 µM (≈ 0.181 µg/mL) and the MIC ([12]; 234/2005, 168 h) was > 32 µM.

In the case of `CO[C@H]1/C=C/O[C@@]2(C)Oc3c(C)c(O)c4c(O)c(c(/C=N/N5CCN(C)CC5)c(O)c4c3C2=O)NC(=O)/C(C)=C\C=C\[C@H](C)[C@H](O)[C@@H](C)[C@@H](O)[C@@H](C)[C@H](OC(C)=O)[C@@H]1C` [RIFAMPIN], the MIC ([1]; 9449/2007, 168 h) is reported as 16 µM (≈ 13.2 µg/mL), the MIC ([2]; 8666/2010, 168 h) is reported as > 8 µM and the MIC ([3]; Praha 4, 168 h) is reported as > 8 µM. The MIC ([7]; Praha 1, 168 h) was 1 µM (≈ 0.823 µg/mL), the MIC ([8]; Praha 131, 168 h) was 2 µM (≈ 1.65 µg/mL) and the MIC ([12]; 234/2005, 168 h) was 16 µM (≈ 13.2 µg/mL).

For `CN[C@@H]1[C@H](O[C@H]2[C@H](O[C@H]3[C@H](O)[C@@H](O)[C@H](N=C(N)N)[C@@H](O)[C@@H]3N=C(N)N)O[C@@H](C)[C@]2(O)C=O)O[C@@H](CO)[C@H](O)[C@H]1O` [STREPTOMYCIN], the MIC ([1]; 9449/2007, 168 h) was 64 µM (≈ 37.2 µg/mL), the MIC ([2]; 8666/2010, 168 h) was 16 µM (≈ 9.31 µg/mL) and the MIC ([3]; Praha 4, 168 h) was 1 µM (≈ 0.582 µg/mL). It also gave an MIC ([7]; Praha 1, 168 h) of 0.5 µM (≈ 0.291 µg/mL), an MIC ([8]; Praha 131, 168 h) of 0.5 µM (≈ 0.291 µg/mL) and an MIC ([12]; 234/2005, 168 h) of 32 µM (≈ 18.6 µg/mL).

In the case of GENTAMICIN, the MIC [1] is reported as 16 µM, the MIC [2] is reported as > 8 µM and the MIC [3] is reported as 2 µM. The MIC [7] was 16 µM, the MIC [8] was 0.5 µM and the MIC [12] was > 32 µM.
